ChEMBL document CHEMBL1201862, “PubChem BioAssay data set” (2004)
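Tested at 5 concentrations; 48 h exposure; 96-well plates; endpoints linearly interpolated, else capped at highest concentration. At the GI50, growth is halved.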 Active and inactive are the calls of the source. No stated cut-off is given here; in the data, active = GI50 up to about 1.1 µM and inactive = higher.

Assays:
Assay in all cases: NCI-60 cell line screen, 48 h
[1] = system: 786-0
[2] = system: A549
[3] = system: DU-145
[4] = system: HCC 2998
[5] = system: HOP-62
[6] = system: K562
[7] = system: MDA-MB-231
[8] = system: MDA-N
[9] = system: NCI-H522
[10] = system: OVCAR-4
[11] = system: OVCAR-8
[12] = system: PC-3
[13] = system: RPMI-8226
[14] = system: SK-MEL-28
[15] = system: SK-OV-3
[16] = system: SN12C
[17] = system: SNB-19
[18] = system: SNB-75
[19] = system: TK-10
[20] = system: U-251

| SMILES | GI50 [1] | GI50 [2] | GI50 [3] | GI50 [4] | GI50 [5] | GI50 [6] | GI50 [7] | GI50 [8] | GI50 [9] | GI50 [10] | GI50 [11] | GI50 [12] | GI50 [13] | GI50 [14] | GI50 [15] | GI50 [16] | GI50 [17] | GI50 [18] | GI50 [19] | GI50 [20] |
| --- | --- | --- | --- | --- | --- | --- | --- | --- | --- | --- | --- | --- | --- | --- | --- | --- | --- | --- | --- | --- |
| CC(=O)Nc1ccc2c3c(cc(O)c2c1)N(C(=O)CCCCCC(=O)N1CC(CCl)c2c1cc(O)c1cc(NC(C)=O)ccc21)CC3CCl (stereo not given) | < 0.01 µM (active) | 0.0176 µM (active) | < 0.01 µM (active) | 0.0211 µM (active) | 0.019 µM (active) | 0.0625 µM (active) | 0.0301 µM (active) | 0.0164 µM (active) | < 0.01 µM (active) | 0.181 µM (active) | < 0.0104 µM (active) | 0.045 µM (active) | 0.0296 µM (active) | 0.0547 µM (active) | 0.0405 µM (active) | < 0.012 µM (active) | < 0.01 µM (active) | < 0.01 µM (active) | 0.169 µM (active) | < 0.01 µM (active) |
| CO[C@@H]1C[C@H](OC(N)=O)[C@@H]2C=C[C@@H]3/C=C(C)/C=C/[C@@H](C)[C@H](/C(C)=C/[C@@H](C)NC(C)=O)OC(=O)/C=C/C=C(C)\C=C\[C@]3(C)[C@@H]2C1 [SUPERSTOLIDE B] | < 0.005 µM (active) | < 0.005 µM (active) | < 0.005 µM (active) | < 0.005 µM (active) | < 0.005 µM (active) | < 0.005 µM (active) | < 0.005 µM (active) | < 0.005 µM (active) | < 0.005 µM (active) | < 0.005 µM (active) | 0.00607 µM (active) | < 0.005 µM (active) | 0.0158 µM (active) | < 0.005 µM (active) | < 0.005 µM (active) | < 0.005 µM (active) | 0.0306 µM (active) | < 0.005 µM (active) | 0.0718 µM (active) | < 0.005 µM (active) |
| CC1OC(OC2C(O[C@H]3CC[C@@]4(C)C(=CC[C@H]5[C@@H]6C[C@@H]7O[C@]8(CC[C@@H](CO)CO8)[C@@H](C)[C@@H]7[C@@]6(C)CC[C@@H]54)C3)OC(CO)C(O)C2OC2OC(CO)C(O)C(O)C2O)C(O)C(O)C1O (stereo not given in full) | 1.9 µM (inactive) | 2.07 µM (inactive) | 1.84 µM (inactive) | 1.62 µM (inactive) | 1.72 µM (inactive) | 1.71 µM (inactive) | 1.79 µM (inactive) | 1.68 µM (inactive) | 1.72 µM (inactive) | 1.91 µM (inactive) | 1.78 µM (inactive) | 1.9 µM (inactive) | 1.94 µM (inactive) | 1.95 µM (inactive) | 2.62 µM (inactive) | 1.8 µM (inactive) | 2.02 µM (inactive) | 1.58 µM (inactive) | 1.71 µM (inactive) | 1.79 µM (inactive) |
| CC(=O)N(CN1C(=O)CCC1C(=O)O)c1ccccc1Cl (stereo not given) | > 100 µM (inactive) | > 100 µM (inactive) | > 100 µM (inactive) | > 100 µM (inactive) | > 100 µM (inactive) | > 100 µM (inactive) | > 100 µM (inactive) | > 100 µM (inactive) | > 100 µM (inactive) | > 100 µM (inactive) | > 100 µM (inactive) | > 100 µM (inactive) | > 100 µM (inactive) | > 100 µM (inactive) | > 100 µM (inactive) | > 100 µM (inactive) | > 100 µM (inactive) | > 100 µM (inactive) | > 100 µM (inactive) | > 100 µM (inactive) |
| O=C(N/N=C\c1ccc([N+](=O)[O-])s1)c1ccncc1 | 6.67 µM (inactive) | 16.7 µM (inactive) | 20.7 µM (inactive) | 5.71 µM (inactive) | 14.4 µM (inactive) | > 10 µM (inactive) | 18.8 µM (inactive) | 14.1 µM (inactive) | 4.75 µM (inactive) | 15 µM (inactive) | 14.7 µM (inactive) | 11.6 µM (inactive) | 5.62 µM (inactive) | 35.3 µM (inactive) | 38.5 µM (inactive) | 8.65 µM (inactive) | 33.4 µM (inactive) | 19.4 µM (inactive) | 23.1 µM (inactive) | 17.7 µM (inactive) |
| Cc1ccc(C[N+](C)(C)N)cc1C | > 10 µM (inactive) | > 10 µM (inactive) | > 10 µM (inactive) | > 10 µM (inactive) | > 10 µM (inactive) | > 10 µM (inactive) | > 10 µM (inactive) | > 10 µM (inactive) | > 10 µM (inactive) | > 10 µM (inactive) | > 10 µM (inactive) | > 10 µM (inactive) | > 10 µM (inactive) | > 10 µM (inactive) | > 10 µM (inactive) | > 10 µM (inactive) | > 10 µM (inactive) | > 10 µM (inactive) | > 10 µM (inactive) | > 10 µM (inactive) |
| CC(=O)N1C(CCc2ccccc2)CC(C)(C=O)C1Cc1ccc(O[Si](C(C)C)(C(C)C)C(C)C)cc1 (stereo not given) | 2.38 µM (inactive) | 3.87 µM (inactive) | 5.61 µM (inactive) | 1.31 µM (inactive) | 8.11 µM (inactive) | 2.72 µM (inactive) | 4.79 µM (inactive) | 2.39 µM (inactive) | 2.15 µM (inactive) | 3.7 µM (inactive) | 4.39 µM (inactive) | 3.18 µM (inactive) | 2.07 µM (inactive) | 6.32 µM (inactive) | 13.4 µM (inactive) | 3.29 µM (inactive) | 4.83 µM (inactive) | 3.92 µM (inactive) | 3.68 µM (inactive) | 3.12 µM (inactive) |
| Cc1c2cnccc2c(C)c2c1c1ccccc1n2CCCN | 0.0667 µM (active) | 0.408 µM (active) | 0.104 µM (active) | 0.615 µM (active) | 0.637 µM (active) | 0.138 µM (active) | 0.171 µM (active) | 0.226 µM (active) | 0.447 µM (active) | 0.14 µM (active) | 0.259 µM (active) | 0.121 µM (active) | 0.153 µM (active) | 0.857 µM (active) | 0.74 µM (active) | 0.401 µM (active) | 0.424 µM (active) | 0.736 µM (active) | 0.326 µM (active) | 0.258 µM (active) |
| O=S(=O)(NC1OCCCC1I)c1ccccc1 (stereo not given) | > 100 µM (inactive) | > 100 µM (inactive) | > 100 µM (inactive) | > 100 µM (inactive) | > 100 µM (inactive) | > 100 µM (inactive) | > 100 µM (inactive) | > 100 µM (inactive) | > 100 µM (inactive) | 89.7 µM (inactive) | > 100 µM (inactive) | > 100 µM (inactive) | 43.2 µM (inactive) | > 100 µM (inactive) | > 100 µM (inactive) | > 100 µM (inactive) | > 100 µM (inactive) | > 100 µM (inactive) | > 100 µM (inactive) | > 100 µM (inactive) |
| CCCCCCCCCCOC1C(C(C)OCCCN(C)C)OC2OC3(CCCCC3)OC21 (stereo not given) | 16.5 µM (inactive) | 15.4 µM (inactive) | 17.1 µM (inactive) | 13.3 µM (inactive) | 16.4 µM (inactive) | 3.47 µM (inactive) | 15.3 µM (inactive) | 4.94 µM (inactive) | 17.9 µM (inactive) | 13.6 µM (inactive) | 18.8 µM (inactive) | 12.4 µM (inactive) | 4.32 µM (inactive) | 12.2 µM (inactive) | 18.5 µM (inactive) | 16.3 µM (inactive) | 12.4 µM (inactive) | 5.48 µM (inactive) | 23.1 µM (inactive) | 14.5 µM (inactive) |
| Clc1ccc(C(c2ccc(Cl)cc2)N2CCNCC2)cc1 | 1.77 µM (inactive) | 2.74 µM (inactive) | 2.47 µM (inactive) | 1.46 µM (inactive) | 1.87 µM (inactive) | 1.58 µM (inactive) | 2.09 µM (inactive) | 1.89 µM (inactive) | 1.78 µM (inactive) | 2.48 µM (inactive) | 2.07 µM (inactive) | 2.45 µM (inactive) | 1.83 µM (inactive) | 1.81 µM (inactive) | 5.43 µM (inactive) | 2.89 µM (inactive) | 5.13 µM (inactive) | 2.34 µM (inactive) | 1.64 µM (inactive) | 2.02 µM (inactive) |
| C=C1CC2(C[C@@H](c3ccccc3)O[C@@H](c3ccccc3)C2)OC1=O (stereo not given in full) | 2.59 µM (inactive) | 5.89 µM (inactive) | 9.12 µM (inactive) | 6.7 µM (inactive) | 14.4 µM (inactive) | 2.22 µM (inactive) | 2.15 µM (inactive) | 2.28 µM (inactive) | 1.48 µM (inactive) | 5.7 µM (inactive) | 2.49 µM (inactive) | 3.5 µM (inactive) | 0.341 µM (active) | 1.86 µM (inactive) | 14.5 µM (inactive) | 3.01 µM (inactive) | 15.2 µM (inactive) | 4.65 µM (inactive) | 1.8 µM (inactive) | 15.4 µM (inactive) |
